Experiments:
[1] = 101 kPa, Liquid; for speed of sound: Sing-around technique in a fixed-path interferometer; for mass density: Vibrating tube method
[2] = xn = mol fraction of the nth substance listed; settings: 101 kPa, Liquid, x1 = 1; for speed of sound: Sing-around technique in a fixed-path interferometer; for mass density: Vibrating tube method

CC(C)(N)CO [2-amino-2-methylpropan-1-ol]
[1]
Settings | mass density [kg/m3] | speed of sound [m/s]
293.15 K | 936.751 | 1501.4
298.15 K | 932.596 | 1483.4
303.15 K | 928.395 | 1461.2
308.15 K | 924.174 | 1442.4
313.15 K | 919.945 | 1423.8
318.15 K | 915.702 | 1405.3
323.15 K | 911.431 | 1386.9

NCCO [2-aminoethan-1-ol]
[1]
Settings | mass density [kg/m3] | speed of sound [m/s]
293.15 K | 1015.98 | 1735.5
298.15 K | 1012.02 | 1719.2
303.15 K | 1008 | 1703.1
308.15 K | 1004.02 | 1686.8
313.15 K | 1000.04 | 1670.5
318.15 K | 996.029 | 1654.2
323.15 K | 992.014 | 1637.9

NCCO [2-aminoethan-1-ol] + CC(C)(N)CO
[2]
Settings | mass density [kg/m3] | speed of sound [m/s]
293.15 K | 1015.98 | 1735.5
298.15 K | 1012.02 | 1719.2
303.15 K | 1008 | 1703.1
308.15 K | 1004.02 | 1686.8
313.15 K | 1000.04 | 1670.5
318.15 K | 996.029 | 1654.2
323.15 K | 992.014 | 1637.9

NCCO [2-aminoethan-1-ol] + CN(CCO)CCO
[2]
Settings | mass density [kg/m3] | speed of sound [m/s]
293.15 K | 1015.98 | 1735.5
298.15 K | 1012.02 | 1719.2
303.15 K | 1008 | 1703.1
308.15 K | 1004.02 | 1686.8
313.15 K | 1000.04 | 1670.5
318.15 K | 996.029 | 1654.2
323.15 K | 992.014 | 1637.9

NCCO [2-aminoethan-1-ol] + OCCN(CCO)CCO
[2]
Settings | mass density [kg/m3] | speed of sound [m/s]
298.15 K | 1012.02 | 1719.2
303.15 K | 1008 | 1703.1
308.15 K | 1004.02 | 1686.8
313.15 K | 1000.04 | 1670.5
318.15 K | 996.029 | 1654.2
323.15 K | 992.014 | 1637.9

CN(CCO)CCO [N-methyldiethanolamine]
[1]
Settings | mass density [kg/m3] | speed of sound [m/s]
293.15 K | 1042.2 | 1585.5
298.15 K | 1038.29 | 1570.1
303.15 K | 1034.36 | 1554.8
308.15 K | 1030.43 | 1539.5
313.15 K | 1026.48 | 1524.2
318.15 K | 1022.53 | 1508.8
323.15 K | 1018.58 | 1493.4

OCCN(CCO)CCO [triethanolamine]
[1]
Settings | mass density [kg/m3] | speed of sound [m/s]
298.15 K | 1120.82 | 1610.5
303.15 K | 1118.06 | 1600.5
308.15 K | 1115.26 | 1595.5
313.15 K | 1112.4 | 1587
318.15 K | 1109.6 | 1578.8
323.15 K | 1106.78 | 1570.6

Reference: the NIST ThermoML archive (doi:10.1021/je900437b)
